Results from US20180263985A1, “MODULATORS OF TOLL-LIKE RECEPTORS FOR THE TREATMENT OF HIV” (Gilead Sciences, Inc., priority 2015, published 2018).
Several values for one entry are separate records, joined by “and”; a condition that tells them apart may be missing. Equal values may be shown once.

Experiments:
Type in all cases: cell-based, human
[1] = test system: PBMC cultures from HIV-1 infected subjects on cART; assay: Induced HIV-1 expression in PBMC cultures, HIV-1 RNA in supernatant after 4 days (COBAS TaqMan HIV-1 Test); details: for Geometric Mean with ≥2-Fold-Activation / Range with ≥2-Fold-Activation: N = 12; for N with ≥2-Fold-Activation: subjects; for Fold HIV-1 Activation: vs DMSO
Experimental: In some experiments, IL-15, the TLR8 modulating compound of Example 15 or the combination of IL-15 and Example 15 were used at the indicated concentrations (Table 4). The cultures were maintained in the presence of antivirals (elvitegravir and efavirenz at 100 nM each) to prevent viral spread and amplification in order to measure the quantity of virus produced (latency reversal) by the TLR8 modulating compounds. At the end of the incubation period, cell-free culture supernatants were harvested and HIV-1 RNA levels were quantified by the COBAS® AmpliPrep/COBAS®TaqMan HIV-1 Test, v2.0 (Roche).
In each table, fold-activation is calculated as a ratio of HIV-1 RNA copies per ml of cell culture supernatants from TLR8 agonist treated samples and DMSO treated controls. Geometric mean fold-activation from three independent incubation samples for each condition of each subject's PBMCs. Values in bold indicate ≥2-fold HIV activation.
To assess if the latency reversal induced by TLR8 agonism could further potentiate latency reversal by a separate mechanisms, we treated cells as described above with IL-15, Example 15, or a combination of IL-15 and Example 15 (Table 4).

DCs = assay: Immune cell activation in PBMC cultures, flow cytometry: DCs; details: for DCs CD80 Fold / DCs CD69 Fold: 2 days, N = 4
Experimental: (§1) TLR8 is expressed on multiple immune cell subsets. To determine how treatment with a TLR8 modulating compound affects activation of distinct cell populations, PBMCs were purified from HIV-1 infected subjects on cART, as described in Example 121 (anonymized participant IDs 184, 185, 188, 189, 190, and 191). […] After incubation, PBMCs were harvested and stained with antibodies conjugated to specific fluorophores (BD Biosciences) to delineate immune cell subsets: CD4 T cells (CD3+CD4+CD8−), CD8 T cells (CD3+CD8+CD4−), NK cells (CD3−CD56+CD16+), monocytes (CD3−CD14+), B cells (CD3−CD19+), and peripheral dendritic cells (DCs), defined as positive for HLA-DR and negative for a panel of markers: CD3, CD14, CD16, CD19, CD20, CD56 (Lin-1 lineage panel, BD Biosciences).
(§2) Additional markers of activation, maturation, and effector function were included for cell subsets, as follows: CD4 and CD8 T cells (CD25, CD38, CD69, IFN-γ, granzyme B, perforin, TNF-α), NK cells (CD25, CD69, IFN-γ), monocytes (CD11c, CD16, CD80, CD86, CD163, TNF-α), B cells (CD40, CD69, CD80, CD86), and DC (CD11c, CD69, CD80, CD86, CD123, and CD163). Cells were stained for surface markers (CD3, CD4, CD8, CD11c, CD14, CD16, CD25, CD69, CD80, CD86, CD163), washed, treated with fixation and permeabilization buffer (eBioscience), and stained for intracellular markers (IFN-γ, granzyme B, perforin, TNF-α). Cells were evaluated by flow cytometry on a LSR Fortessa (BD Biosciences), and data was analyzed with FlowJo software (TreeStar).
(§3) Data are expressed as geometric mean percentage (%) and as geometric mean fold-activation (Fold) for each marker and for each PBMC subset obtained from 4 or 6 subjects, as indicated. Fold activation is calculated as a ratio of the % positive for each marker for each PBMC subset at the indicated concentration of the compound of Example 15 relative to % positive for DMSO treated samples. Fold activations that are 1.5 are in bold.

CD8+ T Cells = assay: Immune cell activation in PBMC cultures, flow cytometry: CD8+ T cells; details: 2 days; for CD8+ T Cells CD25 Fold / CD8+ T Cells CD28 Fold / CD8+ T Cells CD38 Fold / CD8+ T Cells CD69 Fold / CD8+ T Cells CD25 % / CD8+ T Cells CD28 % / CD8+ T Cells CD69 %: N = 6
Experimental: as §1, §2, §3

CCCC[C@H](CO)Nc1nc(N)nc2cccnc12 [Example 15]
Subjects with ≥2-Fold-Activation (%) ([1]; 10 nM): (42) % | Geometric Mean with ≥2-Fold-Activation ([1]; 10 nM): 4.6 fold | Range with ≥2-Fold-Activation ([1]; 10 nM): 2.2-20.1 fold | N with ≥2-Fold-Activation ([1]; 10 nM): 5 of 12 | Fold HIV-1 Activation ([1]; 10 nM, one value per subject (IDs 172-183)): 2.6 fold and 2.2 fold and 4.7 fold and 1.2 fold and 1.9 fold and 1.3 fold and 0.3 fold and 0.5 fold and 1.0 fold and 4.1 fold and 0.8 fold | Subjects with ≥2-Fold-Activation (%) ([1]; 100 nM): (33) % | Geometric Mean with ≥2-Fold-Activation ([1]; 100 nM): 4.8 fold | Range with ≥2-Fold-Activation ([1]; 100 nM): 2.2-10.1 fold | N with ≥2-Fold-Activation ([1]; 100 nM): 4 of 12 | Fold HIV-1 Activation ([1]; 100 nM, one value per subject (IDs 172-183)): 3.8 fold and 6.6 fold and 2.2 fold and 1.5 fold and 1.0 fold and 0.5 fold and 0.2 fold and 0.1 fold and 0.7 fold and 1.8 fold and 1.3 fold | Subjects with ≥2-Fold-Activation (%) ([1]; 1,000 nM): (58) % | Geometric Mean with ≥2-Fold-Activation ([1]; 1,000 nM): 3.4 fold | Range with ≥2-Fold-Activation ([1]; 1,000 nM): 2.4-5.7 fold | N with ≥2-Fold-Activation ([1]; 1,000 nM): 7 of 12 | Fold HIV-1 Activation ([1]; 1,000 nM, one value per subject (IDs 172-183)): 2.7 fold and 2.4 fold and 3.3 fold and 1.2 fold and 4.7 fold and 0.3 fold (2×) and 3.4 fold and 3.0 fold and 1.3 fold and 1.6 fold and 5.7 fold | Geometric Mean with ≥2-Fold-Activation ([1]; 10, 100, or 1000 nM): 4.4 fold | Range with ≥2-Fold-Activation ([1]; 10, 100, or 1000 nM): 2.2-20.1 fold | N with ≥2-Fold-Activation ([1]; 10, 100, or 1000 nM): 9 out of 12 and 9 of 12 | Subjects with ≥2-Fold-Activation (%) ([1]; Example 15 1000 nM): 50% | Fold HIV-1 Activation, Geometric Mean ([1]; Example 15 1000 nM, N = 6): 2.1 fold | N with ≥2-Fold-Activation ([1]; Example 15 1000 nM): 3 of 6 | Fold HIV-1 Activation ([1]; Example 15 1000 nM, one value per subject (IDs 205-210)): 0.6 fold and 4.7 fold and 0.8 fold and 9.7 fold and 2.0 fold and 1.9 fold | DCs CD80 Fold (DCs; 10 nM vs DMSO): 1.8 fold | DCs CD69 Fold (DCs; 100 nM vs DMSO): 0.4 fold | DCs CD80 Fold (DCs; 100 nM vs DMSO): 2.4 fold | DCs CD69 Fold (DCs; 1000 nM vs DMSO): 3.3 fold | DCs CD80 Fold (DCs; 1000 nM vs DMSO): 2.9 fold | DCs CD69 Fold (DCs; 3000 nM vs DMSO): 8.9 fold | DCs CD80 Fold (DCs; 3000 nM vs DMSO): 2.0 fold | Concentration of maximal activation of DCs (DCs; increased expression of CD69): 3000 nM | Concentration of maximal activation of DCs (DCs; increased expression of CD80): 1000 nM | CD8+ T Cells CD25 Fold (CD8+ T Cells; 10 nM vs DMSO): 0.6 fold | CD8+ T Cells CD28 Fold (CD8+ T Cells; 10 nM vs DMSO): 0.9 fold | CD8+ T Cells CD38 Fold (CD8+ T Cells; 10 nM vs DMSO): 0.9 fold | CD8+ T Cells CD69 Fold (CD8+ T Cells; 10 nM vs DMSO): 0.8 fold | CD8+ T Cells CD25 % (CD8+ T Cells; 10 nM): 0.2% | CD8+ T Cells CD28 % (CD8+ T Cells; 10 nM): 0.1% | CD8+ T Cells CD69 % (CD8+ T Cells; 10 nM): 3.7% | CD8+ T Cells CD25 Fold (CD8+ T Cells; 100 nM vs DMSO): 1.0 fold | CD8+ T Cells CD28 Fold (CD8+ T Cells; 100 nM vs DMSO): 1.1 fold | CD8+ T Cells CD38 Fold (CD8+ T Cells; 100 nM vs DMSO): 1.0 fold | CD8+ T Cells CD69 Fold (CD8+ T Cells; 100 nM vs DMSO): 0.7 fold | CD8+ T Cells CD25 % (CD8+ T Cells; 100 nM): 0.3% | CD8+ T Cells CD28 % (CD8+ T Cells; 100 nM): 0.1% | CD8+ T Cells CD69 % (CD8+ T Cells; 100 nM): 3.4% | CD8+ T Cells CD25 Fold (CD8+ T Cells; 1000 nM vs DMSO): 2.2 fold | CD8+ T Cells CD28 Fold (CD8+ T Cells; 1000 nM vs DMSO): 4.4 fold | CD8+ T Cells CD38 Fold (CD8+ T Cells; 1000 nM vs DMSO): 2.0 fold | CD8+ T Cells CD69 Fold (CD8+ T Cells; 1000 nM vs DMSO): 2.2 fold | CD8+ T Cells CD25 % (CD8+ T Cells; 1000 nM): 0.7% | CD8+ T Cells CD28 % (CD8+ T Cells; 1000 nM): 0.4% | CD8+ T Cells CD25 Fold (CD8+ T Cells; 3000 nM vs DMSO): 3.0 fold | CD8+ T Cells CD28 Fold (CD8+ T Cells; 3000 nM vs DMSO): 4.7 fold | CD8+ T Cells CD38 Fold (CD8+ T Cells; 3000 nM vs DMSO): 2.0 fold | CD8+ T Cells CD69 Fold (CD8+ T Cells; 3000 nM vs DMSO): 2.5 fold | CD8+ T Cells CD25 % (CD8+ T Cells; 3000 nM): 0.9% | CD8+ T Cells CD28 % (CD8+ T Cells; 3000 nM): 0.5% | Perforin in CD8+ T cells (CD8+ T Cells; Example 15 treatment): did not increase
